Test results as given in patent publication US20160137982A1, “P38 MAPK INHIBITOR-CONTAINING MEDIUM AND METHOD FOR OSTEOGENIC DIFFERENTIATION” (TAMPEREEN YLIOPISTO, priority 2013, published 2016).

What was measured:
[1] = tested on: human adipose stem cells (hASCs); assay: Quantitative alkaline phosphatase (ALP) activity of hASCs, normalized to DNA, as early osteogenic marker; format: cell-based
Description: (§1) The study was conducted in accordance with the ethics committee of the Pirkanmaa Hospital District, Tampere, Finland (R03058). ASCs were isolated from subcutaneous adipose tissue samples obtained with written informed consent from 4 female donors (age, 44±7 years) undergoing elective surgical procedures in the Department of Plastic Surgery, Tampere University Hospital, Tampere, Finland. Isolation of hASCs from adipose tissue samples was carried out by using a mechanical and enzymatic method. The adipose tissue was minced manually into small fragments and digested with collagenase NB 6 GMP Grade (SERVA Electrophoresis GmbH, Heidelberg, Germany) in a water bath at 37° C. under shaking conditions. The digested tissue was centrifuged and filtered in sequential steps through a 100-μm poresize filter to separate the ASCs from the surrounding tissue. Cells were expanded in T75 flasks and passaged after reaching 80% confluency. Expansion was done in DMEM/F-12 1:1 (Life Technologies, Gibco, Carlsbad, Calif., USA) supplemented with 1% l-analyl-l-glutamine (GlutaMAX I; Life Technologies, Gibco), 1% antibiotics (p/s; 100 U/ml penicillin, 0.1 mg/ml streptomycin; Lonza, BioWittaker, Verviers, Belgium) and 10% HS (PAA Laboratories). ASCs were detached by using TrypLE Select (LifeTechnologies, Gibco). Cell surface marker profile (FIG. 1) was analyzed using flow cytometry (FACSAria; BD Biosciences, Erembodegem, Belgium) as described in Patrikoski et al (2013).
The effect obtainable with the present medium and method was studied experimentally. The differentiation into osteogenic cells was analysed following alkaline phosphatase (ALP) as early osteogenic marker and mineralization as a marker for advanced osteogenic process. FIG. 2 illustrates protein expression of alkaline phosphatase (ALP) analysis in various media. Results have been normalized to the amount of DNA. BM denotes basal medium, SB a p38 MAP kinase inhibitor SB 202190 and OM an osteogenic medium. In FIG. 2A these differentiation media results (BM+SB and OM) were compared against BM as a control. In FIG. 2B and 2C results from two cell lines from different patients were analyzed in two time points (after 7 and 14 days) to show the independence on the source (patient-lines) of the present medium and inter-patient predictability in that sense. In these experiments, SB was used in a concentration of 2 μM.
In further experiments, the effect of a concentration gradient of two different p38 MAPK inhibitors, i.e. SB 202190 and JX401, on osteogenic differentiation of hASCs was analysed. First, the effect of SB202190 inhibitor in a concentration range of 2 to 10 μM on hASCs was studied in BM culture conditions. […] In this case, the analysis was performed both in BM and osteogenic medium (OM).
(§2) In the above experiments, the basal medium used was DMEM/F12+5% HSPaa serum. Said p38 MAP kinase inhibitor SB 202190 was from SigmaAldrich, while JX401 was from Calbiochem. Osteogenic medium representing the state of the art, was a base medium supplemented with L-ascorbic acid-2phosphate (AsAP), β-glycerolphosphate, and dexamethasone.

[2] = tested on: human adipose stem cells (hASCs); assay: Quantitative Alizarin Red mineralization assay of hASCs; format: cell-based; conditions: for peak concentration (Alizarin Red mineralization): 2 or 5 μM tested
Description: as §1
FIG. 3 represents quantitated Alizarin Red mineralization analysis of ASCs in basal medium, osteogenic medium, with and without SB inhibitor (2 μM) in time point 21 days.
To analyze how p38MAPK inhibitors affect the progression of osteogenic differentiation, Alizarin Red mineralization assay was performed both in BM and OM conditions. In both culture conditions, SB202190 inhibitor peaked at the concentration of 2 μM, but in OM also 5 μM was functional (FIG. 4C).
as §2

`COc1cc(SC)ccc1C(=O)N1CCC(Cc2ccccc2)CC1` [JX401, 1-[2-Methoxy-4-(methylthio)benzoyl]-4-benzylpiperidine] was tested, and the “ALP activity of hASCs” value ([1]; 2 μM in BM, days 7 and 14, patient cell line 15/12 (FIG. 4B)) was “effective as compared to the highest concentration”, the “functional concentration peak (ALP activity)” value ([1]; in BM, 2/5/10 μM tested, days 7 and 14, patient cell line 15/12 (FIG. 4B)) was 5 µM and the “most effective concentration (ALP activity)” value ([1]; in OM, 2/5/10 μM tested, days 7 and 14, patient cell line 15/12 (FIG. 4B)) was 2 µM.
For `Oc1ccc(-c2nc(-c3ccc(F)cc3)c(-c3ccncc3)[nH]2)cc1` [SB202190, 4-(4-Fluorophenyl)-2-(4-hydroxyphenyl)-5-(4-pyridyl)-1H-imidazole], the “ALP activity of hASCs” value ([1]; 2 μM in BM, day 14, patient cell line 1/13 (FIG. 4A)) was “clearly enhanced”, the “osteogenic differentiation (ALP) in basal medium compared with osteogenic medium” value ([1]; 2 μM inhibitor in BM vs OM) was “almost equal level as with use of osteogenic medium” and the “detection of alkaline phosphatase marker / differentiation across patient cell lines” value ([1]; 2 μM inhibitor, days 7 and 14, different patient cell lines) was “detected in every patient cell line”. For the same compound, the “ALP activity of hASCs” value ([1]; 5 μM in BM, day 14, patient cell line 1/13 (FIG. 4A)) was “clearly enhanced”, the “ALP activity of hASCs” value ([1]; 10 μM in BM, day 14, patient cell line 1/13 (FIG. 4A)) was “diminished compared to the other two concentrations” and the “Alizarin Red mineralization with and without inhibitor” value ([2]; 2 μM, day 21, patient cell line 41/12 (FIG. 3)) was “enhancer of advanced processes of osteogenesis”. For the same compound, the “Alizarin Red mineralization” value ([2]; 5 μM in OM, day 14, patient cell line 11/13 (FIG. 4C)) was “functional”, the “peak concentration (Alizarin Red mineralization)” value ([2]; in BM, day 14, patient cell line 11/13 (FIG. 4C)) was 2 µM and the “peak concentration (Alizarin Red mineralization)” value ([2]; in OM, day 14, patient cell line 11/13 (FIG. 4C)) was 2 µM.
